Data taken from patent US5476856A, “Treatment of PAF and histamine-mediated diseases with 8-chloro-11-[1-[(5-methyl-3-pyridyl)methyl]-4-piperidyliden]-6,11-dihydr o-5H-benzo[5,6]cyclohepta[1,2-b]pyridine” (J. Uriach & Cia. S.A., priority 1992, dated 1995).
Counter-ions that a name gives are not always drawn.

What was measured:
[1] = test system: hypotension induced by PAF; test: Inhibition of the hypotensive effect induced by PAF in normotense rats (Test 2); design: species or system Sprage Dawley rats; conditions: Rattus norvegicus; iv, 3 min before PAF 0.5 mcg/Kg i.v.; 50% inhibition of hypotension; read-out: PAF antagonism in vivo, Test 2 Art. p. ID50
Method: Male Sprage Dawley rats (b.w. 180-220 g) anesthetized with sodium pentobarbital (50 mg/Kg, i.p. 1 mL/100 g) are used. In order to measure the average arterial pressure, a polyethylene catheter is introduced into the carotid artery. The arterial pressure is recorded with the help of a transducer connected with a R611 Beckman polygraph. The test compounds are administered through the femoral vein 3 min. before the injection of PAF (0.5 mcg/Kg, i.v.).

mortality induced by PAF = test: Mortality induced by PAF in mice (p.o.) (Test 3); assay type: in vivo, Swiss mice; conditions: for ED50: Mus musculus, 2 h, po, 1 h before 100 mcg/kg PAF-C18 and 1 mg/kg propanolol, 50% inhibition of mortality, read-out: PAF antagonism in vivo, Test 3 Mort. ID50
Method: This test was performed according to the procedure described by Young et al. (Prostaglandins, 1985, 30, 545-551). Groups of 10 Swiss mice weighing from 22 to 26 g were used. 100 mcg/kg of PAF-C18 and 1 mg/kg of propanolol were administered through a lateral tail vein 1 h after the oral administration of the compounds to be tested (0.2 mL/10 g). Animals were examined 2 h after the injection of PAF. The percentage of the inhibition of the mortality induced by PAF was determined for all test compounds in comparison with the control group. The results are expressed as ID50 values, that is to say, the amount of compound by weight of animal (dose) needed to inhibit the mortality induced by PAF in a 50%.

[2] = test system: histamine-induced contraction of guinea-pig ileum (AntiH1); test: Antihistamine activity in guinea-pig ileum (Test 4, AntiH1 act.); assay type: cell-based, Dunkin-Hartley guinea pigs; conditions: for IC50: Cavia porcellus, histamine 5×10^-7 M, 5 min preincubation, read-out: Antihistaminic activity in vitro, Test 4 AntiH1 act. ileum IC50; for IC50 / antihistamine activity compared with compounds 11 and 12-14, in words / antihistamine potency in words: guinea-pig ileum
Method: This test was performed according to the method of Magnus. Male Dunkin-Hartley guinea pigs (b.w. 300-350 g), fasted overnight, were used. Animals were stunned, the abdomen was opened and 4 cm long ileum sections were cut. The sections were placed in a Petri dish containing Tyrode's solution at 37° C. and continuously bubbled with carbogen. The ileum fragments were washed with Tyrode's solution and then were transferred to an organ bath. Ileum contraction was measured using an isometric transducer. The initial load was 1 g. After a stabilization period of 20 min in which the organ is immersed in Tyrode's solution at 37° C. continuously bubbled with carbogen, non cumulative stimuli with submaximal doses of histamine (5×10^-7 M) were given. The contraction in absence or presence (5 min. preincubation time) of the test compounds was recorded.

[3] = test system: platelet aggregation induced by PAF; test: Inhibition of platelet aggregation induced by PAF (Test 1); assay type: cell-based, New Zealand albino rabbits; conditions: Oryctolagus cuniculus; rabbit platelet rich plasma; PAF (C18) 16 nM final; read-out: PAF antagonism in vitro, Test 1 Plat. aggreg. IC50
Method: The platelet rich plasma (PRP) is prepared by blood centrifugation at 250×g for 10 min. at 4° C. and it is diluted with platelet poor plasma (PPP) obtained by additional centrifugation at 3000×g for 10 min. The amount of platelets is adjusted to […].

Compound: Clc1ccc2c(c1)CCc1cccnc1C2=C1CCN(Cc2cccnc2)CC1 [Compound 1, 8-chloro-11-(1-(3-pyridylmethyl)-4-piperidyliden)-6,11-dihydro-5H-benzo[5,6]cyclohepta[1,2-b]pyridine]
- ED50 [1]: > 5 mg/kg
- ED50 (mortality induced by PAF): 30 mg/kg
- IC50 [2]: 160 nM
- IC50 [3]: 4000 nM

Compound: Cc1ccc(CN2CCC(=C3c4ccc(Cl)cc4CCc4cccnc43)CC2)cn1 [Compound 2, 8-chloro-11-(1-[(6-methyl-3-pyridyl)metyl]-4-piperidyliden)-6,11-dihydro-5H-benzo [5,6]cyclohepta[1,2-]pyridine]
- ED50 [1]: > 5 mg/kg
- ED50 (mortality induced by PAF): 30 mg/kg
- IC50 [2]: 37 nM
- antihistamine activity compared with compounds 11 and 12-14, in words [2]: stronger activity than the 4-pyridine 11 and the compounds 12-14
- antihistamine potency in words [2]: potent antihistamines
- IC50 [3]: 9000 nM

Compound: Cc1ncccc1CN1CCC(=C2c3ccc(Cl)cc3CCc3cccnc32)CC1 [Compound 3, 8-chloro-11-(1-[(2-methyl-3-pyridyl)methyl]-4-piperidyliden)-6,11-dihydro-5H-benzo [5,6]cyclohepta[1,2-b]pyridine]
- ED50 [1]: > 5 mg/kg
- ED50 (mortality induced by PAF): > 30 mg/kg
- IC50 [2]: 270 nM
- IC50 [3]: 13000 nM

Compound: Cc1cncc(CN2CCC(=C3c4ccc(Cl)cc4CCc4cccnc43)CC2)c1 [Compound 4, 8-chloro-11-[1-[(5-methyl-3-pyridyl)methyl]-4-piperidyliden]-6,11-dihydro-5H-benzo[5,6]cyclohepta[1,2-b]pyridine]
- ED50 [1]: 0.44 mg/kg
- ED50 (mortality induced by PAF): 1.9 mg/kg
- activity in the PAF-induced mortality test, in words (mortality induced by PAF; oral administration): strong activity
- activity in the PAF-induced mortality test relative to all the other tested compounds (mortality induced by PAF; oral, superior to all the other tested compounds): ≥ 10 fold
- IC50 [2]: 4.3 nM
- antihistamine activity compared with compounds 11 and 12-14, in words [2]: stronger activity than the 4-pyridine 11 and the compounds 12-14
- antihistamine potency in words [2]: potent antihistamines
- antihistaminic potency relative to the 2-methyl derivative 3 ([2]; more potent than compound 3): ~100 fold
- antihistaminic potency relative to compound 11 ([2]; more potent than compound 11): 20 fold
- antihistaminic potency relative to the 6-methyl and 4-methyl derivatives 2 and 5 ([2]; more potent than compounds 2 and 5): 10 fold
- IC50 [3]: 3200 nM

Compound: Cc1ccncc1CN1CCC(=C2c3ccc(Cl)cc3CCc3cccnc32)CC1 [Compound 5, 8-chloro-11-(1-[(4-methyl-3-pyridyl)methyl]-4-piperidyliden)-6,11-dihydro-5H -benzo[5.6]cyclohepta[1,2]pyridine]
- ED50 [1]: > 5 mg/kg
- ED50 (mortality induced by PAF): 10 to 30 mg/kg
- IC50 [2]: 35 nM
- antihistamine activity compared with compounds 11 and 12-14, in words [2]: stronger activity than the 4-pyridine 11 and the compounds 12-14
- antihistamine potency in words [2]: potent antihistamines
- IC50 [3]: 15000 nM

Compound: Clc1ccc2c(c1)CCc1cccnc1C2=C1CCN(Cc2cccnc2Cl)CC1 [Compound 6, 8-chloro-11-(1-[(2-chloro-3-pyridyl)methyl]-4-piperidyliden)-6,11-dihydro-5H -benzo[5,6]cyclohepta[1,2-b]pyridine]
- ED50 [1]: > 5 mg/kg
- ED50 (mortality induced by PAF): > 30 mg/kg
- IC50 [2]: 350 nM
- IC50 [3]: > 100000 nM

Compound: Clc1ccc2c(c1)CCc1cccnc1C2=C1CCN(Cc2ccc(Cl)nc2)CC1 [Compound 7, 8-chloro-11-(1-[(6-chloro-3-pyridyl)methyl]-4-piperidyliden)-6,11-dihydro-5H -benzo[5,6]cyclohepta[1,2-b]pyridine]
- ED50 [1]: > 5 mg/kg
- ED50 (mortality induced by PAF): 20 to 30 mg/kg
- IC50 [3]: > 100000 nM

Compound: Clc1ccc2c(c1)CCc1cccnc1C2=C1CCN(Cc2cncc(Br)c2)CC1 [Compound 8, 8-chloro-11-(1-[(3-bromo-5-pyridyl)methyl]-4-piperidyliden)-6,11-dihydro-5H -benzo[5,6]cyclohepta[1,2-b]pyridine, trihydrochloride]
- ED50 [1]: > 5 mg/kg
- ED50 (mortality induced by PAF): < 30 mg/kg
- IC50 [2]: 280 nM
- IC50 [3]: 720 nM

Compound: COc1ccc(CN2CCC(=C3c4ccc(Cl)cc4CCc4cccnc43)CC2)cn1 [Compound 9, 8-chloro-11-(1-[(6-methoxy-3-pyridyl)methyl]-4-piperidyliden)-6,11-dihydro-5H -benzo[5,6]cyclohepta[1,2-b]pyridine]
- IC50 [2]: 380 nM
- IC50 [3]: 37000 nM

Compound: Clc1ccc2c(c1)CCc1cccnc1C2=C1CCN(Cc2ccncc2)CC1 [Compound 11, reference compound]
- ED50 [1]: > 5 mg/kg
- ED50 (mortality induced by PAF): 30 mg/kg
- IC50 [2]: 94 nM
- IC50 [3]: 1800 nM

Compound: CC(=O)N1CCC(=C2c3ccc(Cl)cc3CCc3cccnc32)CC1 [Compound 12, reference compound]
- ED50 [1]: 2 mg/kg
- ED50 (mortality induced by PAF): 31 mg/kg
- IC50 [2]: 100 nM
- IC50 [3]: 840 nM

Compound: O=C(c1cc[n+]([O-])cc1)N1CCC(=C2c3ccc(Cl)cc3CCc3cccnc32)CC1 [Compound 13, reference compound]
- ED50 [1]: 1.9 mg/kg
- ED50 (mortality induced by PAF): > 30 mg/kg
- IC50 [2]: 210 nM
- IC50 [3]: 220 nM

Compound: CCOC(=O)N1CCC(=C2c3ccc(Cl)cc3CCc3cccnc32)CC1 [Compound 14, reference compound]
- ED50 [1]: > 5 mg/kg
- ED50 (mortality induced by PAF): > 30 mg/kg
